According to patent publication US8987195B2 (priority 2012, dated 2015):
Where two headings read alike, the source gives them in different places.

Tests used:
HCV genotype 1b replicon = assay: HCV replicon assay, genotype 1b replicon EC50; assay type: cell-based, Hepatitis C virus; conditions: HCV replicon, genotype 1b, read-out: EC50 [gt-1b]
How it was run: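 Replicon cells (Neo^r, some luciferase:Neo^r fusion); G418 removed at plating; compound dilution series, 24-48 h. Readout: RNA by 32P-probe hybridization/protection or TaqMan, normalized to cyclophilin A RNA, or luciferase. EC50 vs DMSO control, 4-parameter fit.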

[1] = target: HCV NS3/4A protease genotype 1b (Hepatitis C virus genotype 1b, UniProt P26663); assay: HCV NS3/4A protease time-resolved fluorescence (TRF) assay, Ki against genotype 1b; assay type: biochemical; conditions: IC50 [gt-1b], NS3/4A protease TRF assay, genotype 1b enzyme 0.2 nM
How it was run: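 Enzyme was pre-incubated 30 min with inhibitor in HEPES pH 7.5 buffer (150 mM NaCl, 15% glycerol, 10 mM DTT). Reaction ran 2.5 h at room temperature with 25 nM europium TRF peptide substrate, read at ex 340/em 615 nm. Enzyme levels: 0.2 nM (1b), 0.4 nM (A156T), 0.025 nM (3a). Ki came from four-parameter IC50 via IC50=Ki(1+[S]/KM).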

| SMILES | EC50 (HCV genotype 1b replicon; Hepatitis C virus) | IC50 [1] | EC50 (HCV genotype 1b replicon) | EC50 (HCV genotype 1b replicon; Hepatitis C virus, K+ salt) | IC50 ([1]; K+ salt) |
| --- | --- | --- | --- | --- | --- |
| Cc1nc2ccccc2c2c1O[C@]1(CC2)C[C@H]2C(=O)N[C@]3(C(=O)NS(=O)(=O)C4(C)CC4)C[C@H]3/C=C\CCCCC[C@H](Nc3ncccn3)C(=O)N2C1 [Example 359, (2R,6S,12Z,13aS,14aR,16aS)-5′-methyl-N-[(1-methylcyclopropyl)sulfonyl]-5,16-dioxo-6-(pyrimidin-2-ylamino)-1,1′,2′,6,7,8,9,10,11,13a,14,15,16,16a-tetradecahydrospiro[cyclopropa[e]pyrrolo[1,2-a][1,4]diazacyclopentadecine-2,3′-pyrano[2,3-c]quinoline]-14a(5H)-carboxamide] | 205 nM | 0.4 nM | – | – | – |
| Cc1nc2ccccc2c2c1O[C@]1(CC2)C[C@H]2C(=O)N[C@]3(C(=O)NS(=O)(=O)C4(C)CC4)C[C@H]3/C=C\CCCCC[C@H](Nc3nccs3)C(=O)N2C1 [Example 360, (2R,6S,12Z,13aS,14aR,16aS)-5′-methyl-N-[(1-methylcyclopropyl)sulfonyl]-5,16-dioxo-6-(1,3-thiazol-2-ylamino)-1,1′,2′,6,7,8,9,10,11,13a,14,15,16,16a-tetradecahydrospiro[cyclopropa[e]pyrrolo[1,2-a][1,4]diazacyclopentadecine-2,3′-pyrano[2,3-c]quinoline]-14a(5H)-carboxamide] | 140 nM | 0.143 nM | – | – | – |
| COc1ccc2nc(C)c3c(c2n1)CC[C@]1(C[C@H]2C(=O)N[C@]4(C(=O)NS(=O)(=O)C5(C)CC5)C[C@H]4/C=C\CCCCC[C@H](NC(=O)OCC(C)C)C(=O)N2C1)O3 [Example 362, 2-methylpropyl [(2R,6S,12Z,13aS,14aR,16aS)-2′-methoxy-6′-methyl-14a-{[(1-methylcyclopropyl)sulfonyl]carbamoyl}-5,16-dioxo-1,5,6,7,8,9,9′,10,10′,11,13a,14,14a,15,16,16a-hexadecahydrospiro[cyclopropa[e]pyrrolo[1,2-a][1,4]diazacyclopentadecine-2,8′-pyrano[2,3-c][1,5]naphthyridin]-6-yl]carbamate] | 4.07 nM | 0.008 nM | – | – | – |
| COc1ccc2nc(C)c3c(c2n1)CC[C@]1(C[C@H]2C(=O)N[C@]4(C(=O)NS(=O)(=O)C5(C)CC5)C[C@H]4/C=C\CCCCC[C@H](NC(=O)OC4CCCC4)C(=O)N2C1)O3 [Example 363, cyclopentyl [(2R,6S,12Z,13aS,14aR,16aS)-2′-methoxy-6′-methyl-14a-{[(1-methylcyclopropyl)sulfonyl]carbamoyl}-5,16-dioxo-1,5,6,7,8,9,9′,10,10′,11,13a,14,14a,15,16,16a-hexadecahydrospiro[cyclopropa[e]pyrrolo[1,2-a][1,4]diazacyclopentadecine-2,8′-pyrano[2,3-c][1,5]naphthyridin]-6-yl]carbamate] | 8.16 nM | 0.011 nM | – | – | – |
| COc1ccc2nc(C)c3c(c2n1)CC[C@]1(C[C@H]2C(=O)N[C@]4(C(=O)NS(=O)(=O)C5(C)CC5)C[C@H]4/C=C\CCCCC[C@H](NC(=O)OC4(C)CC4)C(=O)N2C1)O3 [Example 364, 1-methylcyclopropyl [(2R,6S,12Z,13aS,14aR,16aS)-2′-methoxy-6′-methyl-14a-{[(1-methylcyclopropyl)sulfonyl]carbamoyl}-5,16-dioxo-1,5,6,7,8,9,9′,10,10′,11,13a,14,14a,15,16,16a-hexadecahydrospiro[cyclopropa[e]pyrrolo[1,2-a][1,4]diazacyclopentadecine-2,8′-pyrano[2,3-c][1,5]naphthyridin]-6-yl]carbamate] | 5.46 nM | 0.012 nM | – | – | – |
| COc1ccc2nc(C)c3c(c2n1)CC[C@]1(C[C@H]2C(=O)N[C@]4(C(=O)NS(=O)(=O)C5(C)CC5)C[C@H]4/C=C\CCCCC[C@H](NC(=O)OC4(C)CCC4)C(=O)N2C1)O3 [Example 365, 1-methylcyclobutyl [(2R,6S,12Z,13aS,14aR,16aS)-2′-methoxy-6′-methyl-14a-{[(1-methylcyclopropyl)sulfonyl]carbamoyl}-5,16-dioxo-1,5,6,7,8,9,9′,10,10′,11,13a,14,14a,15,16,16a-hexadecahydrospiro[cyclopropa[e]pyrrolo[1,2-a][1,4]diazacyclopentadecine-2,8′-pyrano[2,3-c][1,5]naphthyridin]-6-yl]carbamate] | 4.93 nM | 0.02 nM | – | – | – |
| COc1ccc2nc(C)c3c(c2c1)CC[C@]1(C[C@H]2C(=O)N[C@]4(C(=O)NS(=O)(=O)C5(C)CC5)C[C@H]4/C=C\CCCCC[C@H](NC(=O)OC(C(C)(C)C)C(F)(F)F)C(=O)N2C1)O3 (stereo partly drawn) [Example 366, 1,1,1-trifluoro-3,3-dimethylbutan-2-yl [(2R,6S,12Z,13aS,14aR,16aS)-9′-methoxy-5′-methyl-14a-{[(1-methylcyclopropyl)sulfonyl]carbamoyl}-5,16-dioxo-1,1′,2′,5,6,7,8,9,10,11,13a,14,14a,15,16,16a-hexadecahydrospiro[cyclopropa[e]pyrrolo[1,2-a][1,4]diazacyclopentadecine-2,3′-pyrano[2,3-c]quinolin]-6-yl]carbamate] | 6.46 nM | 0.023 nM | – | – | – |
| COc1ccc2nc(C)c3c(c2c1)CC[C@]1(C[C@H]2C(=O)N[C@]4(C(=O)NS(=O)(=O)C5(C)CC5)C[C@H]4/C=C\CCCCC[C@H](NC(=O)OC(C(C)(C)C)C(F)(F)F)C(=O)N2C1)O3 (stereo partly drawn) [Example 367, 1,1,1-trifluoro-3,3-dimethylbutan-2-yl [(2R,6S,12Z,13aS,14aR,16aS)-9′-methoxy-5′-methyl-14a-{[(1-methylcyclopropyl)sulfonyl]carbamoyl}-5,16-dioxo-1,1′,2′,5,6,7,8,9,10,11,13a,14,14a,15,16,16a-hexadecahydrospiro[cyclopropa[e]pyrrolo[1,2-a][1,4]diazacyclopentadecine-2,3′-pyrano[2,3-c]quinolin]-6-yl]carbamate] | – | 0.03 nM | 3.61 nM | – | – |
| CC(C)COC(=O)N[C@H]1CCCCC/C=C\[C@@H]2C[C@@]2(C(=O)NS(=O)(=O)C2(C)CC2)NC(=O)[C@@H]2C[C@]3(CCc4c(c(C(F)F)nc5ccc(Cl)cc45)O3)CN2C1=O [Example 368, 2-methylpropyl [(2R,6S,12Z,13aS,14aR,16aS)-9′-chloro-5′-(difluoromethyl)-14a-{[(1-methylcyclopropyl)sulfonyl]carbamoyl}-5,16-dioxo-1,1′,2′,5,6,7,8,9,10,11,13a,14,14a,15,16,16a-hexadecahydrospiro[cyclopropa[e]pyrrolo[1,2-a][1,4]diazacyclopentadecine-2,3′-pyrano[2,3-c]quinolin]-6-yl]carbamate] | 9.68 nM | 0.017 nM | – | – | – |
| COc1ccc2nc(C)c3c(c2c1)[C@H](F)C[C@]1(C[C@H]2C(=O)N[C@]4(C(=O)NS(=O)(=O)C5(C)CC5)C[C@H]4/C=C\CCCCC[C@H](NC(=O)OCC(C)(C)C)C(=O)N2C1)O3 [Example 371, 2,2-dimethylpropyl [(1′R,2S,6S,12Z,13aS,14aR,16aS)-1′-fluoro-9′-methoxy-5′-methyl-14a-{[(1-methylcyclopropyl)sulfonyl]carbamoyl}-5,16-dioxo-1,1′,2′,5,6,7,8,9,10,11,13a,14,14a,15,16,16a-hexadecahydrospiro[cyclopropa[e]pyrrolo[1,2-a][1,4]diazacyclopentadecine-2,3′-pyrano[2,3-c]quinolin]-6-yl]carbamate] | – | – | – | 1.27 nM | 0.015 nM |
| COc1ccc2nc(C)c3c(c2c1)[C@H](F)C[C@]1(C[C@H]2C(=O)N[C@]4(C(=O)NS(=O)(=O)C5(C)CC5)C[C@H]4/C=C\CCCCC[C@H](NC(=O)OCC(C)C)C(=O)N2C1)O3 [Example 372, 2-methylpropyl [(1′R,2S,6S,12Z,13aS,14aR,16aS)-1′-fluoro-9′-methoxy-5′-methyl-14a-{[(1-methylcyclopropyl)sulfonyl]carbamoyl}-5,16-dioxo-1,1′,2′,5,6,7,8,9,10,11,13a,14,14a,15,16,16a-hexadecahydrospiro[cyclopropa[e]pyrrolo[1,2-a][1,4]diazacyclopentadecine-2,3′-pyrano[2,3-c]quinolin]-6-yl]carbamate] | – | – | – | 2.12 nM | 0.01 nM |
| COc1ccc2nc(C)c3c(c2c1)[C@H](F)C[C@]1(C[C@H]2C(=O)N[C@]4(C(=O)NS(=O)(=O)C5(C)CC5)C[C@H]4/C=C\CCCCC[C@H](NC(=O)OC4CCCC4)C(=O)N2C1)O3 [Example 373, cyclopentyl [(1′R,2S,6S,12Z,13aS,14aR,16aS)-1′-fluoro-9′-methoxy-5′-methyl-14a-{[(1-methylcyclopropyl)sulfonyl]carbamoyl}-5,16-dioxo-1,1′,2′,5,6,7,8,9,10,11,13a,14,14a,15,16,16a-hexadecahydrospiro[cyclopropa[e]pyrrolo[1,2-a][1,4]diazacyclopentadecine-2,3′-pyrano[2,3-c]quinolin]-6-yl]carbamate] | – | – | – | 2.67 nM | 0.011 nM |
| COc1ccc2nc(C)c3c(c2n1)[C@H](F)C[C@]1(C[C@H]2C(=O)N[C@]4(C(=O)NS(=O)(=O)C5(C)CC5)C[C@H]4/C=C\CCCCC[C@H](NC(=O)OC(C)(C)C)C(=O)N2C1)O3 [Example 374, tert-butyl [(2S,6S,10′R,12Z,13aS,14aR,16aS)-10′-fluoro-2′-methoxy-6′-methyl-14a-{[(1-methylcyclopropyl)sulfonyl]carbamoyl}-5,16-dioxo-1,5,6,7,8,9,9′,10,10′,11,13a,14,14a,15,16,16a-hexadecahydrospiro[cyclopropa[e]pyrrolo[1,2-a][1,4]diazacyclopentadecine-2,8′-pyrano[2,3-c][1,5]naphthyridin]-6-yl]carbamate] | 2.29 nM | 0.012 nM | – | – | – |
